What was measured:
[1] = DLS size and PDI of cortisone and hydrocortisone milled with F127 (Example 7); assay type: physicochemical; settings: suspension milled with 5% F127 in PBS pH 7.1, 25 hours
Experimental: A milling procedure was employed in which aqueous dispersions containing coarse compound particles were individually milled with F127 at near-neutral pH buffer using a grinding medium. Briefly, a slurry containing 5% of compound and 5% F127 in PBS (0.0067 M PO43), pH 7.1 was added to an equal bulk volume of 1-mm ceria-stabilized zirconium oxide beads in a glass vial (e.g., 2 mL of slurry per 2 mL of beads). A magnetic stir bar was used to agitate the beads, stirring at approximately 500 rpm at ambient conditions for 25 hours.
The milled suspensions were subjected to dynamic light scattering (DLS) measurements to determine particle size and polydispersity index (PDI, a measure of the width of the particle size distribution). The samples for DLS measurements were buffered with HyClone™ PBS (phosphate-buffered saline) to produce isotonic samples that have a physiologically relevant pH.

[2] = XRPD crystal form before and after milling (Example 8); assay type: physicochemical; settings: input vs milled with F127
Description: Particles were isolated by centrifugation, then resuspended in H2O and then recentrifuged. The wet sample was resuspended in H2O and deposited thinly and evenly onto a flat zero background sample holder (Rigaku 906165). The sample was allowed to air dry.
Milligram amounts were packed as an evenly thin layer of solid onto a zero background sample holder (Rigaku 906165).
X-ray Powder Diffraction (XRPD) patterns were obtained using a Rigaku MiniFlex 600 benchtop x-ray diffractometer equipped with a Cu X-ray tube (Cu/Kα=1.54059 Å), a six-position sample changer and a D/teX Ultra detector. […] Diffraction patterns were viewed and analyzed using PDXL analysis software provided by the instrument manufacturer. A reference standard silicon powder (NIST Standard Reference Material 640d) generated a peak at 28.43° and 28.45° two theta when samples were prepared as suspension in H2O (to simulate Procedure A) and Procedure B, respectively.
All input crystalline forms were arbitrarily designated as “A” forms. New forms that emerged after milling, if any, were sequentially designated as “B”, “C”, etc.

PDI [1] | Size (Z-average) [1] | Crystal form change after milling of "A" forms? [2] | SMILES
0.258 | 357 nm | No | C[C@]12CCC(=O)C=C1CC[C@@H]1[C@@H]2[C@@H](O)C[C@@]2(C)[C@H]1CC[C@]2(O)C(=O)CO [Compound 2, hydrocortisone]
0.074 | 225 nm | No | C[C@]12CCC(=O)C=C1CC[C@@H]1[C@@H]2C(=O)C[C@@]2(C)[C@H]1CC[C@]2(O)C(=O)CO [Compound 1, Cortisone]

From patent publication US20190216824A1, “Particles, Compositions and Methods for Ophthalmic and/or Other Applications” (priority 2016, published 2019)
